Data on two compounds can be found in paper PMC6218659, “Structures of DPAGT1 Explain Glycosylation Disease Mechanisms and Advance TB Antibiotic Design” (Cell, 2018).

By IC50 is commonly meant the midpoint of a concentration-inhibition curve. Read a high IC50 as weaker potency. The MBC is the smallest concentration meeting the test's criterion for killing. Read a low MBC as greater bactericidal potency.

In one series the target is T1, DPAGT1 (Homo sapiens, UniProt Q9H3H5).
T1 construct: H. sapiens DPAGT1 (1-408, N-terminal 6 x HIS tag, TEV cleavage site); 6xHis purification tag with TEV site (N, cleaved yes); made in house; host or cells: Spodoptera frugiperda Sf9 insect cells (baculovirus)
T1 sequence (Q9H3H5 1-408): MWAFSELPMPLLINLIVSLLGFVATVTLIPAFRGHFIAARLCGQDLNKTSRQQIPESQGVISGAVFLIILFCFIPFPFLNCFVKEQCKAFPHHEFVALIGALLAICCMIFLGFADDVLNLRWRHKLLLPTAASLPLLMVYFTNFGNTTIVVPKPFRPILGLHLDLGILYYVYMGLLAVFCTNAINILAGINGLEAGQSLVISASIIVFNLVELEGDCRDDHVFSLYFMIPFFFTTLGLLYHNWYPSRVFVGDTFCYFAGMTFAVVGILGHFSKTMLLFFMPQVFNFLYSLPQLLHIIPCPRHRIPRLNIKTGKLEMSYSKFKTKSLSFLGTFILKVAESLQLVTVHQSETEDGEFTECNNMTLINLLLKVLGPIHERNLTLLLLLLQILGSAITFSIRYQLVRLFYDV
Description: Radiolabeled substrate enzyme activity assay. The class given is biochemical, H. sapiens. The note with it: purified DPAGT1 enzyme, Figure 6F. As for the experimental part:
2 μl of 2 μM DPAGT1 WT or mutant proteins in GFB buffer supplemented with 5mM extra MgCl2, 1% OGNG/CHS/cardiolipin and dolichyl monophosphate was combined with 2 μl of UDP-N-acetyl [1-14C] […] The reaction was terminated by the addition of 6 μl of 100% methanol and immediately transferred onto ice. 1 μl of sample was spotted onto a silica coated TLC plate in triplicate and run with a mobile phase consisting of chloroform, methanol, and water at a 65:25:4 ratio respectively. After the run, the TLC plate was dried thoroughly, wrapped in cling film, incubated with a phosphor imaging substrate for 4 days, then phosphor imaged using a Biorad. The pixel density of the spots corresponding to the hydrophobic product was divided by combined pixel density of the product and the substrate and multiplied by the known concentration of substrate added to ascertain the amount of product formed.

In the next series the test system is Mtb H37Rv ATCC27294. Description: Minimum inhibitory concentrations testing against Mtb. The class given is cell-based, Mycobacterium tuberculosis. The note with it: for MIC: Mycobacterium tuberculosis, 168 h.
Series [1] concerns Mtb-infected J774A.1 macrophages. Description: Efficacy against Mtb growing in infected macrophages. The note with it: J774A.1 macrophages treated 3 or 7 days.
The next series deals with B. cereus ATCC11778. Description: Micro-broth dilution and drop plate antimicrobial susceptibility test. The class given is cell-based, Bacillus cereus. As for the experimental part: (§1) In a sterile 96-well plate, serial dilutions were made with the test substance to final volume of 50 μl. Inoculum was then prepared in Mueller-Hinton broth to 0.5 McFarland and diluted before adding 50 μl to the well to make ∼1x10^5 CFU/ml. The culture plate was incubated at 35 °C for 20-24 hrs. A positive growth control and sterility wells were also prepared along with the culture wells. Absorbance at OD600 was taken using BMG Labtech SPECTROstar Omega spectrophotometer. MIC is determined by the lowest concentration without growth. IC50 is determined from plotting a dose-response curve, see Data Analysis below. To determine the MBC, using a multi-channel pipette, 1 μl of culture broth was taken from the same 96-well microdilution growth plate and carefully inoculated on surface of MH agar plate. The plate is then incubated for additional 20 hrs. at 35 °C. The MBC value is the lowest concentration without observed growth on the agar.
For orientation: Dilution methods test growth across graded concentrations, often in twofold steps.

Another series has as its system HepG2 cells. Description: Cell proliferation assay (MTS). The class given is cell-based, human. As for the experimental part:
(§2) In sterile 96-well plate, each well was seeded with ∼1x10^5 cells. The cells are then grown confluent overnight in 100 μl DMEM with 10% FBS. The medium is replenished with DMEM with 2% FBS and added vehicle control or test substance the next day. For test substance in methanol, stock was added to 25 μl of DMEM with 2% FBS or PBS and placed in the laminar flow hood to let the methanol evaporate (about 1-3 hrs). Once the methanol has evaporated, DMEM with 2% FBS was added to final volume of 100 μl of desired test concentration. […] Cells are grown for additional 24 hrs. The cell viability was determined by using Promega CellTiter 96^© AQueous One Solution Cell Proliferation Assay (3-(4,5-dimethylthiazol-2-yl)-5-(3-carboxymethoxyphenyl)-2-(4-sulfophenyl)-2H-tetrazolium, inner salt; MTS) System following the manufacture protocol.

A further series has as its system Raji cells. Description: Cell proliferation assay (MTS). The class given is cell-based, human. The note with it: 24 hrs. As for the experimental part: as §2
The next series deals with HEK293 cells. Description: Cell proliferation assay (MTS). The class given is cell-based, human. As for the experimental part: as §2
Another series concerns B. subtilis EC1524. Description: Micro-broth dilution and drop plate antimicrobial susceptibility test. The class given is cell-based, Bacillus subtilis. As for the experimental part: as §1
For a further series, the system named is P. aeruginosa ATCC27853. The description is as above. The class given is cell-based. To be noted: Pseudomonas aeruginosa. As for the experimental part: as §1
A further series deals with E. coli ATCC25922. Described as above. The class given is cell-based. The note with it: Escherichia coli. As for the experimental part: as §1
The subject of a further series is S. aureus ATCC29219. The description is as above. The class given is cell-based. To be noted: Staphylococcus aureus. As for the experimental part:
as §1

Setting [2] is: minimal lethal dose / MIC, 800 μg mL-1 used for >400.
[3] abbreviates: MTS cell proliferation assay, 24 hrs, highest concentration 400 µg mL-1.
Where [4] appears, read: serial 2-fold dilutions (Table S6).

≈ marks a conversion by molar mass, not a printed value. Where two headings read alike, the source gives them in different places. Some results are limits rather than exact numbers.

As for `CCCCCCCC(=O)N[C@H]1[C@H](O[C@H]2O[C@H](CO)[C@@H](O)[C@H](O)[C@H]2NC(C)=O)O[C@H](C[C@@H](O)[C@H]2O[C@@H](n3ccc(=O)[nH]c3=O)[C@H](O)[C@@H]2O)[C@H](O)[C@@H]1O` [TUN-8,Ac, N-Octanoyl-N’-acetyl tunicamycin], the “effect on DPAGT1 catalytic activity” value on DPAGT1 was “restored inhibitory activity”.

Consider `CCCCCCCCCC(=O)N[C@H]1[C@H](O[C@H]2O[C@H](CO)[C@@H](O)[C@H](O)[C@H]2NC(=O)CCCCCCCCC)O[C@H](C[C@@H](O)[C@H]2O[C@@H](n3ccc(=O)[nH]c3=O)[C@H](O)[C@@H]2O)[C@H](O)[C@@H]1O` [TUN-10,10, Di-N-decanoyl-tunicamycin], for which the MIC with Mtb H37Rv ATCC27294 (read-out: 1-week MIC in 7H9/ADC/Tw) worked out at 1.2 ± 0.3 µg/mL (≈ 1.37 µM); in the series on Mtb H37Rv ATCC27294 (read-out: 1-week MIC in GAST/Fe) it was 0.1 ± 0.1 µg/mL (≈ 0.114 µM); in the series with Mtb H37Rv ATCC27294 (read-out: Minimal Inhibitory Concentration, Mtb H37RV a), 1.2 µg/mL (≈ 1.37 µM); with Mtb H37Rv ATCC27294 (read-out: Minimal Inhibitory Concentration, Mtb H37RV b) it was 0.1 µg/mL (≈ 0.114 µM); with B. cereus ATCC11778 (B. cereus, micro-broth dilution, mean ± SEM (n=3)) it was 0.33 ± 0.11 µg/mL (≈ 0.377 µM); in the series on B. cereus ATCC11778 (Bacillus cereus, ATCC11778), 0.33 ± 0.11 µg/mL (≈ 0.377 µM). The MIC was 0.39 µg/mL (≈ 0.446 µM) in the series on B. cereus ATCC11778 (Bacillus cereus, ATCC 11778 / NRRL11778, read-out: Minimal Inhibitory Concentration, B. cereus NRRL 11778); 0.33 ± 0.11 µg/mL (≈ 0.377 µM) in the series on B. subtilis EC1524 (Bacillus subtilis, EC1524); 0.39 µg/mL (≈ 0.446 µM) in the series on B. subtilis EC1524 (Bacillus subtilis, EC1524, read-out: Minimal Inhibitory Concentration, B. subtilis EC1524); 83 ± 29 µg/mL (≈ 94.9 µM) in the series on P. aeruginosa ATCC27853; 330 ± 120 µg/mL (≈ 377 µM) with E. coli ATCC25922; 83 ± 29 µg/mL (≈ 94.9 µM) against S. aureus ATCC29219. The “Relative Therapeutic Index (RTI), Mtb H37RV a” value with Mtb H37Rv ATCC27294 (minimal lethal dose / MIC, 7H9/ADC/Tw, 800 μg mL-1 used for >400) stood at 667. Further, the “Relative Therapeutic Index (RTI), Mtb H37RV b” value with Mtb H37Rv ATCC27294 (minimal lethal dose / MIC, GAST/Fe, 800 μg mL-1 used for >400) was found to be 8000. The “reduction of intracellular bacterial burdens” value in series [1] (1 × MIC) is recorded as 1 logs; in series [1] (10 × MIC), 2 logs. In addition, the half-inhibitory concentration (IC50) in the series on B. cereus ATCC11778 (Bacillus cereus, ATCC11778) amounted to 0.046 µg/mL (≈ 0.0526 µM); in the series on B. subtilis EC1524 (Bacillus subtilis, EC1524) it was 0.12 ± 0.04 µg/mL (≈ 0.137 µM); in the series on P. aeruginosa ATCC27853 it was 53.5 µg/mL (≈ 61.1 µM); in the series with E. coli ATCC25922, 91.6 µg/mL (≈ 105 µM); in the series on S. aureus ATCC29219, 49.3 µg/mL (≈ 56.3 µM). Also, the MBC against B. cereus ATCC11778 (Bacillus cereus, ATCC11778) is 12.5 µg/mL (≈ 14.3 µM); in the series on B. subtilis EC1524 (Bacillus subtilis, EC1524) it was over 0.39 µg/mL; against P. aeruginosa ATCC27853 it was 400 µg/mL (≈ 457 µM); with E. coli ATCC25922, 400 µg/mL (≈ 457 µM); in the series on S. aureus ATCC29219, 400 µg/mL (≈ 457 µM). Also, the “Relative Therapeutic Index (RTI), B. cereus NRRL 11778” value with B. cereus ATCC11778 (setting [2]) was found to be 2050. For the same compound, the “LD50 values, HepG2” value in the series on HepG2 cells (setting [3]) was “N/A (N/A = not available. No or low cytotoxicity observed at highest, saturating concentration tested (400 µg mL-1))”. The “Minimal Lethal Dose, HepG2” value in the series with HepG2 cells (setting [4]) was over 400 µg/mL. Besides, the “LD50 values, Raji” value in the series with Raji cells was found to be 196.17 ± 47.61 µg/mL. The “LD50 values, HEK293” value in the series with HEK293 cells (setting [3]) is “N/A (N/A = not available. No or low cytotoxicity observed at highest, saturating concentration tested (400 µg mL-1))”. Also, in the series on HEK293 cells (setting [4]), the “Minimal Lethal Dose, HEK 293” value is over 400 µg/mL. Also, the “Relative Therapeutic Index (RTI), B. subtilis EC1524” value with B. subtilis EC1524 (setting [2]) turned out to be 2050.
